Source: US8039514B2, “Sulfonamide compounds and use thereof” (Asahi Kasei Pharma Corporation, priority 2008, dated 2011)

target: T1, human calcium-sensing receptor (CaSR) (Homo sapiens, UniProt P41180); assay: intracellular Ca assay, CaSR antagonist activity in HEK293/hCaSR cells; format: cell-based; details: Fura2-AM, inhibition of response to calcium chloride ligand solution, read-out: IC50 values according to the intracellular Ca assay (CaSR antagonist activity)
T1 construct: expressed in transfected cells
T1 sequence (P41180 20-1078): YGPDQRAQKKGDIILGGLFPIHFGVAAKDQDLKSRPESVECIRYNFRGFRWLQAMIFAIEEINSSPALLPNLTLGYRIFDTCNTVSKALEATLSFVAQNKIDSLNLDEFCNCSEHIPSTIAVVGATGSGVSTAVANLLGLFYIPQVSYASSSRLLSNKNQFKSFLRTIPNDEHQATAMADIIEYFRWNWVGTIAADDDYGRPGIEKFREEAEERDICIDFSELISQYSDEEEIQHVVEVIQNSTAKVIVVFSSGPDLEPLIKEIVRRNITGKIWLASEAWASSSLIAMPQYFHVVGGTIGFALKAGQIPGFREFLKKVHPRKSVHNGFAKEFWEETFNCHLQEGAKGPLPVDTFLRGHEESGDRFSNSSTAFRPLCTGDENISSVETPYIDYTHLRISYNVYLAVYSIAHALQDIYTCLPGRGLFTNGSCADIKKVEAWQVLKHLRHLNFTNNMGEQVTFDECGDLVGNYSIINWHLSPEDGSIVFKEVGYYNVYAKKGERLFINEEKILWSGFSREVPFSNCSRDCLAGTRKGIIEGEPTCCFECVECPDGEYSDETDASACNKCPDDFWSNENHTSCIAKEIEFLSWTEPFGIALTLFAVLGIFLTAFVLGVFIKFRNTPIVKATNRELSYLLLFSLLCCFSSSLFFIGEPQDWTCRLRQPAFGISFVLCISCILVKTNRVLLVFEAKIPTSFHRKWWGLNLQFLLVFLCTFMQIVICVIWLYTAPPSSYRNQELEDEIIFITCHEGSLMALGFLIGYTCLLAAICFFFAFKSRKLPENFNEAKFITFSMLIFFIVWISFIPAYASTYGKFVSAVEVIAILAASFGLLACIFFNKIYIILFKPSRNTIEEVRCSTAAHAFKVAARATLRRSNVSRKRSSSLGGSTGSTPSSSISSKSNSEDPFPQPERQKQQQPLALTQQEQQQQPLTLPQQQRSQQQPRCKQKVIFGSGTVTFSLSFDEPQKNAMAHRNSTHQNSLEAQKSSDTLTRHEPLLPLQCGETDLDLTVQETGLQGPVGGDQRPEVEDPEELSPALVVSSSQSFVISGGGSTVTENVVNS
Method: HEK293 cells stably expressing human calcium-sensing receptor (CaSR) (termed HEK293/hCaSR cells) were used. HEK293/hCaSR cells were cultured in a culture medium [DMEM medium containing 0.5 mg/mL Geneticin, 50 Unit/mL penicillin, 50 μg/mL streptomycin and 10% fetal bovine serum (FBS), all manufactured by Invitrogen] to semiconfluent in an incubator at 37° C. under 5% carbon dioxide atmosphere.
Cultured cells were washed with phosphate buffered saline (PBS(−), manufactured by Dainippon Sumitomo Pharmaceutical Company) which had been prewarmed to 37° C., added with PBS(−) containing 10 mM ethylenediamine tetraacetic acid (EDTA), and then incubated in an incubator at 37° C. for 10 minutes. After adding the culture medium to separate the cells, cell suspension was transferred to a centrifuge tube. Cells were collected by centrifuge at 1,500 rpm for 3 minutes, and resuspended in Ca assay buffer [20 mM HEPES buffer (pH 7.4), 115 mM sodium chloride, 5.4 mM potassium chloride, 0.8 mM magnesium chloride, 0.8 mM calcium chloride, 13.8 mM D(+)-glucose (all manufactured by Wako Pure Chemicals) and 0.1% bovine serum albumin (manufactured by SIGMA)] containing 0.2% Pluronic F-127 (manufactured by Molecular Probes) and […] Fura2-AM (manufactured by DOJINDO LABORATORIES) to obtain a cell suspension of 5×10^6 cells/mL. After incubating at 37° C. for 30 minutes, the cells were washed twice with the Ca assay buffer and suspended in the same buffer to obtain a cell suspension of 1×10^6 cells/60 μL. 60 μL of the cell suspension was aliquoted to each well of a 96 well UV microplate (manufactured by Corning Co.) to give a cell plate.
The test compound was diluted with the Ca assay buffer to five times the final concentration and then 80 μL of the diluted compound was applied to each well of a 96 well round bottomed microplate (manufactured by Corning Co.) to give a sample plate. 80 μL of the Ca assay buffer containing 7.5 mM calcium chloride (i.e., ligand solution) was applied to each well of a 96 well round bottomed microplate to give a ligand plate. Then, thus prepared sample plate, ligand plate, and the cell plate were placed in Functional Drug Screening System (FDSS) 4000 (manufactured by Hamamatsu Photonics K.K.) which had been preswitched on and prewarmed to 37° C. Measurements were then carried out as follows. After incubating the cell plate for 180 seconds, fluorescence intensity was measured every two seconds (excitation wavelength; 340 nm and 380 nm, measurement wavelength; 500 nm). After the measurement for 40 seconds, 20 μL of the test compound solution from the sample plate was added to the cell plate, followed by continuous measurement for 160 seconds. Then, 20 μL of the ligand solution from the ligand plate was added to the cell plate, followed by continuous measurement for 100 seconds.
Amount of change in intracellular Ca concentration is indicated as a peak height of the ratio of the fluorescence intensity with excitation of 340 nm and 380 nm (i.e., fluorescence intensity with excitation at 340 nm/fluorescence intensity with excitation at 380 nm) that is obtained from the difference between the maximum ratio after adding the ligand solution and the ratio before adding the ligand solution. Further, when the peak height obtained from the Ca assay buffer containing no test compound has inhibition ratio of 0% while the peak height obtained from the Ca assay buffer containing no calcium chloride as a ligand solution has inhibition ratio of 100%, inhibition ratio for each test compound (i.e., CaSR antagonist activity) was calculated.

**Q.** With `CCc1cc(-c2cc(CCC(=O)O)ccc2F)ccc1S(=O)(=O)N(C)C[C@H](O)CNC(C)(C)CC1Cc2ccccc2C1` [Exp. 5-21, (R)-3-(4′-(N-(3-(1-(2,3-dihydro-1H-inden-2-yl)-2-methylpropan-2-ylamino)-2-hydroxypropyl)-N-methylsulfamoyl)-3′-ethyl-6-fluorobiphenyl-3-yl)propionic acid] as the molecule, how does the IC50 read?
**A.** Its IC50 is at most 300 nM.

**Q.** For `CN(C[C@H](O)CNC(C)(C)Cc1ccc2ccccc2c1)S(=O)(=O)c1ccc(-c2ccccc2C=CC(=O)O)cc1` [Exp. 3-44, (R)-3-(4′-(N-(2-hydroxy-3-(2-methyl-1-(naphthalen-2-yl)propan-2-ylamino)propyl)-N-methylsulfamoyl)biphenyl-2-yl)acrylic acid], which IC50 is on record?
**A.** Its IC50 is 1000 to 3000 nM.

**Q.** With `Cc1cc(-c2cc(C(F)(F)F)cc(S(=O)(=O)N(C)C[C@H](O)CNC(C)(C)CC3Cc4ccccc4C3)c2)ccc1C(=O)O` [Exp. 3-197, (R)-3′-(N-(3-(1-(2,3-dihydro-1H-inden-2-yl)-2-methylpropan-2-ylamino)-2-hydroxypropyl)-N-methylsulfamoyl)-3-methyl-5′-(trifluoromethyl)biphenyl-4-carboxylic acid] as the molecule, how does the IC50 read?
**A.** The IC50 was at most 300 nM.

**Q.** With `CN(C[C@H](O)CNC(C)(C)Cc1ccc2ccccc2c1)S(=O)(=O)Cc1cccc(-c2ccc(CCC(=O)O)cc2)c1` [Exp. 3-87, (R)-3-(3′-((N-(2-hydroxy-3-(2-methyl-1-(naphthalen-2-yl)propan-2-ylamino)propyl)-N-methylsulfamoyl)methyl)biphenyl-4-yl)propionic acid] as the molecule, how does the IC50 read?
**A.** The IC50 was 1000 to 3000 nM.

**Q.** `CN(C[C@H](O)CNC(C)(C)Cc1ccc2ccccc2c1)S(=O)(=O)c1ccc(-c2ccc(C(=O)O)cc2F)cc1` [Exp. 3-35, (R)-2-fluoro-4′-(N-(2-hydroxy-3-(2-methyl-1-(naphthalen-2-yl)propan-2-ylamino)propyl)-N-methylsulfamoyl)biphenyl-4-carboxylic acid] was tested. Which IC50 did it give?
**A.** The IC50 was 300 to 1000 nM.

**Q.** Which IC50 does the source give for `CN(C[C@H](O)CNC(C)(C)Cc1ccc2ccccc2c1)S(=O)(=O)c1cccc(-c2cc3c(c(C(=O)O)c2)OCC3)c1` [Exp. 3-13, (R)-5-(3-(N-(2-hydroxy-3-(2-methyl-1-(naphthalen-2-yl)propan-2-ylamino)propyl)-N-methylsulfamoyl)phenyl)-2,3-dihydrobenzofuran-7-carboxylic acid] here?
**A.** The IC50 was 1000 to 3000 nM.

**Q.** How did the IC50 turn out when `CN(C[C@H](O)CNC(C)(C)Cc1ccc(Cl)c(F)c1)S(=O)(=O)c1cccc(-c2ccc(C(=O)O)cc2F)c1` [Exp. 3-76, (R)-3′-(N-(3-(1-(4-chloro-3-fluorophenyl)-2-methylpropan-2-ylamino)-2-hydroxypropyl)-N-methylsulfamoyl)-2-fluorobiphenyl-4-carboxylic acid] was run?
**A.** Its IC50 is 1000 to 3000 nM.

**Q.** With `CN(C[C@H](O)CNC(C)(C)CC1Cc2ccccc2C1)S(=O)(=O)c1cccc(-c2ccc(C(=O)O)c(F)c2)c1` [Exp. 3-53, (R)-3′-(N-(3-(1-(2,3-dihydro-1H-inden-2-yl)-2-methylpropan-2-ylamino)-2-hydroxypropyl)-N-methylsulfamoyl)-3-fluorobiphenyl-4-carboxylic acid] as the molecule, how does the IC50 read?
**A.** The IC50 was at most 300 nM.

**Q.** With `CN(C[C@H](O)CNC(C)(C)Cc1ccc2ccccc2c1)S(=O)(=O)c1ccc(-c2cccc(C(=O)O)c2)cc1` [Exp. 3-30, (R)-4′-(N-(2-hydroxy-3-(2-methyl-1-(naphthalen-2-yl)propan-2-ylamino)propyl)-N-methylsulfamoyl)biphenyl-3-carboxylic acid] as the molecule, how does the IC50 read?
**A.** The IC50 was at most 300 nM.

**Q.** Which IC50 does the source give for `CN(CC(O)CNC(C)(C)CC1Cc2ccccc2C1)S(=O)(=O)c1cc(C=CC(=O)O)cc(C(F)(F)F)c1` (centres unmarked) [Exp. 11-1, 3-(3-(N-(3-(1-(2,3-dihydro-1H-inden-2-yl)-2-methylpropan-2-ylamino)-2-hydroxypropyl)-N-methylsulfamoyl)-5-(trifluoromethyl)phenyl)acrylic acid] here?
**A.** Its IC50 is at most 300 nM.

**Q.** `CN(C[C@H](O)CNC(C)(C)Cc1ccc2ccccc2c1)S(=O)(=O)Cc1ccccc1-c1cc(F)cc(C(=O)O)c1` [Exp. 3-85, (R)-5-fluoro-2′-((N-(2-hydroxy-3-(2-methyl-1-(naphthalen-2-yl)propan-2-ylamino)propyl)-N-methylsulfamoyl)methyl)biphenyl-3-carboxylic acid] was tested. Which IC50 did it give?
**A.** The IC50 was 1000 to 3000 nM.

**Q.** Which IC50 does the source give for `CN(C[C@H](O)CNC(C)(C)CC1Cc2ccccc2C1)S(=O)(=O)c1cccc(-c2c(Cl)cc(C(=O)O)cc2Cl)c1` [Exp. 3-228, (R)-2,6-dichloro-3′-(N-(3-(1-(2,3-dihydro-1H-inden-2-yl)-2-methylpropan-2-ylamino)-2-hydroxypropyl)-N-methylsulfamoyl)biphenyl-4-carboxylic acid] here?
**A.** The IC50 was at most 300 nM.

**Q.** For `CN(C[C@H](O)CNC(C)(C)CC1Cc2ccccc2C1)S(=O)(=O)c1ccc(-c2ccc(F)c(CCC(=O)O)c2)cc1C(F)(F)F` [Exp. 5-62, (R)-3-(4′-(N-(3-(1-(2,3-dihydro-1H-inden-2-yl)-2-methylpropan-2-ylamino)-2-hydroxypropyl)-N-methylsulfamoyl)-4-fluoro-3′-(trifluoromethyl)biphenyl-3-yl)propionic acid], which IC50 is on record?
**A.** Its IC50 is at most 300 nM.

**Q.** For `CN(C[C@H](O)CNC(C)(C)CCCc1ccsc1)S(=O)(=O)c1cc(-c2cccc(CCC(=O)O)c2)cc(C(F)(F)F)c1` [Exp. 9-73, (R)-3-(3′-(N-(2-hydroxy-3-(2-methyl-5-(thiophen-3-yl)pentan-2-ylamino)propyl)-N-methylsulfamoyl)-5′-(trifluoromethyl)biphenyl-3-yl)propionic acid], which IC50 is on record?
**A.** Its IC50 is at most 300 nM.

**Q.** How did the IC50 turn out when `CN(C[C@H](O)CNC(C)(C)CC1Cc2ccccc2C1)S(=O)(=O)c1cccc(-c2cccc(C(=O)O)c2F)c1` [Exp. 3-201, (R)-3′-(N-(3-(1-(2,3-dihydro-1H-inden-2-yl)-2-methylpropan-2-ylamino)-2-hydroxypropyl)-N-methylsulfamoyl)-2-fluorobiphenyl-3-carboxylic acid] was run?
**A.** Its IC50 is at most 300 nM.

**Q.** With `Cc1c(C(=O)O)cccc1-c1cccc(S(=O)(=O)N(C)C[C@H](O)CNC(C)(C)CC2Cc3ccccc3C2)c1` [Exp. 3-92, (R)-3′-(N-(3-(1-(2,3-dihydro-1H-inden-2-yl)-2-methylpropan-2-ylamino)-2-hydroxypropyl)-N-methylsulfamoyl)-2-methylbiphenyl-3-carboxylic acid] as the molecule, how does the IC50 read?
**A.** Its IC50 is at most 300 nM.

**Q.** Which IC50 does the source give for `CN(C[C@H](O)CNC(C)(C)Cc1ccc2ccccc2c1)S(=O)(=O)c1cccc(-c2ccc(C(=O)O)c(F)c2)c1` [Exp. 3-9, (R)-3-fluoro-3′-(N-(2-hydroxy-3-(2-methyl-1-(naphthalen-2-yl)propan-2-ylamino)propyl)-N-methylsulfamoyl)biphenyl-4-carboxylic acid] here?
**A.** Its IC50 is 300 to 1000 nM.
